Where a SMILES comes first, the peptide text is derived from it. Where no end group is shown, it is not given here.
These compounds were tested on human tumor cells (assay: Cytotoxic activity screening of peptide library on human tumor cell lines, SRB method). Conditions: SRB method; cytotoxic = dose-dependent 50% inhibition of proliferation, GI50 below 100 μM in at least one cell line.
Format: cell-based
Experimental: Negative control cells were cultured on a volume of vehicle equal to that of the experimental samples. An “x-y” curve (dose-response) was established with the percent of surviving cells, compared in respect to the negative control cells, and the following parameters were estimated: 50% growth inhibition (GI50); Total growth inhibition (TGI); and the lethal concentration 50 (LC50), that is the concentration causing the 50% of cell death (Boyd M R, Paull K D, and Rubinstein L R (1992) “Data display and analysis strategies for the NCI Disease Oriented In-Vitro Antitumor Drug Screen, in Cytotoxic Anticancer Drugs: Models and Concept for Drug Discovery and Development” (Baleriote F A, Corbett T H and Baker L H eds) pp 11-34, Kluwer Academia Publishers, Boston).
Were considered as cytotoxic peptides all those peptides being able of inhibiting 50% of the cellular proliferation, in a dose-dependent manner, and showing GI50 values below 100 μM, at least in one of the cell lines studied. The human tumor cell lines used were: HEp-2 (larynx carcinoma), A549 (lung epithelial adenocarcinoma), M14 (melanoma), Colo 205 (colon adenocarcinoma), Ls174T (colon adenocarcinoma), LnCAP (prostate carcinoma), PC-3 (prostate carcinoma) and H 125 (non-small cell lung adenocarcinoma). Represented are primary sequences for the designed peptides, the code used for its generation and their respective cytotoxic capacity on human tumor cells.

Compound | Cytotoxic activity in vitro
CC[C@H](C)[C@H](N)C(=O)N[C@@H](Cc1ccccc1)C(=O)N[C@H](C(=O)N[C@@H](Cc1ccccc1)C(=O)N[C@@H](CO)C(=O)N[C@@H](C)C(=O)N[C@@H](C)C(=O)N[C@@H](CO)C(=O)N[C@@H](CC(=O)O)C(=O)N[C@@H](CO)C(=O)N[C@@H](C)C(=O)N1CCC[C@H]1C(=O)NCC(=O)N[C@@H](C)C(=O)N[C@@H](CO)C(=O)N[C@@H](CC(=O)O)C(=O)N[C@@H](Cc1c[nH]c2ccccc12)C(=O)N[C@H](C(=O)N[C@@H](CCCNC(=N)N)C(=O)N[C@@H](CC(=O)O)C(N)=O)[C@@H](C)CC)C(C)C [Peptide O07P103] (H-IFVFSAASDSAPGASDWIRD-NH2) | − (symbol − indicates its absence, following criteria established in Example 2)
CC[C@H](C)[C@H](NC(=O)[C@H](C)NC(=O)[C@H](C)NC(=O)[C@@H](NC(=O)[C@H](CC(=O)O)NC(=O)[C@H](CC(=O)O)NC(=O)[C@H](CC(C)C)NC(=O)[C@H](CC(C)C)NC(=O)[C@@H]1CCCN1C(=O)[C@H](C)NC(=O)[C@H](C)NC(=O)[C@H](C)NC(=O)[C@H](Cc1ccc(O)cc1)NC(=O)[C@H](Cc1c[nH]cn1)NC(=O)CNC(=O)CNC(=O)[C@H](CC(N)=O)NC(=O)[C@@H](N)CC(=O)O)[C@@H](C)CC)C(=O)N[C@@H](CCC(N)=O)C(=O)N[C@@H](Cc1c[nH]cn1)C(N)=O [Peptide E07P01] (H-DNGGHYAAAPLLDDIAAIQH-NH2) | − (symbol − indicates its absence, following criteria established in Example 2)
CC(C)C[C@H](NC(=O)[C@@H](NC(=O)[C@H](CC(=O)O)NC(=O)[C@H](CC(N)=O)NC(=O)CNC(=O)[C@H](C)NC(=O)CNC(=O)CNC(=O)[C@H](CCCCN)NC(=O)[C@H](CC(C)C)NC(=O)[C@@H](NC(=O)[C@H](CC(N)=O)NC(=O)[C@H](CC(N)=O)NC(=O)[C@H](C)N)C(C)C)C(C)C)C(=O)N[C@@H](Cc1ccccc1)C(=O)NCC(=O)NCC(=O)NCC(=O)NCC(=O)N[C@@H](C)C(N)=O [Peptide A07P43] (H-ANNVLKGGAGNDVLFGGGGA-NH2) | − (symbol − indicates its absence, following criteria established in Example 2)
CC[C@H](C)[C@H](NC(=O)[C@H](C)NC(=O)[C@H](CC(N)=O)NC(=O)[C@H](CCC(=O)O)NC(=O)[C@@H](NC(=O)[C@@H](NC(=O)[C@@H](NC(=O)CN)C(C)C)[C@@H](C)O)[C@@H](C)CC)C(=O)NCC(=O)NCC(=O)N[C@@H](CO)C(=O)NCC(=O)N[C@@H](CC(N)=O)C(=O)N[C@@H](CC(=O)O)C(=O)N[C@H](C(=O)N[C@H](C(=O)N[C@H](C(=O)NCC(=O)N[C@@H](CC(N)=O)C(=O)N[C@@H](C)C(N)=O)C(C)C)[C@@H](C)CC)C(C)C [Peptide A07P45] (H-GVTIENAIGGSGNDVIVGNA-NH2) | − (symbol − indicates its absence, following criteria established in Example 2)
CC(C)C[C@H](N)C(=O)N[C@@H](Cc1ccc(O)cc1)C(=O)NCC(=O)N[C@@H](C)C(=O)N[C@@H](CC(N)=O)C(=O)N1CCC[C@H]1C(=O)N[C@@H](CO)C(=O)N[C@H](C(=O)N[C@@H](CCCNC(=N)N)C(=O)N[C@H](C(=O)NCC(=O)N[C@@H](CC(=O)O)C(=O)N[C@H](C(=O)N[C@H](C(=O)N[C@@H](Cc1ccc(O)cc1)C(=O)NCC(=O)N[C@@H](Cc1ccccc1)C(=O)N[C@@H](CC(N)=O)C(=O)N[C@@H](CO)C(=O)N[C@@H](CC(N)=O)C(N)=O)C(C)C)[C@@H](C)O)[C@@H](C)O)[C@@H](C)O [Peptide E07P06] (H-LYGANPSTRTGDTVYGFNSN-NH2) | − (symbol − indicates its absence, following criteria established in Example 2)
CC[C@H](C)[C@H](NC(=O)[C@H](Cc1ccccc1)NC(=O)[C@H](CC(=O)O)NC(=O)[C@@H](NC(=O)[C@H](C)NC(=O)[C@@H](NC(=O)[C@@H](N)CC(=O)O)C(C)C)[C@@H](C)O)C(=O)N[C@H](C(N)=O)C(C)C [Peptide U07P78, DVATDFIV- amide] (H-DVATDFIV-NH2) | − (symbol − indicates its absence, following criteria established in Example 2)
C[C@H](NC(=O)[C@H](C)NC(=O)[C@H](Cc1ccc(O)cc1)NC(=O)[C@H](Cc1c[nH]cn1)NC(=O)CNC(=O)CNC(=O)[C@H](CC(N)=O)NC(=O)[C@H](CC(=O)O)NC(=O)CNC(=O)CNC(=O)[C@@H](NC(=O)[C@H](CC(N)=O)NC(=O)[C@@H](NC(=O)[C@H](CCC(=O)O)NC(=O)[C@H](CO)NC(=O)[C@H](Cc1c[nH]c2ccccc12)NC(=O)[C@H](Cc1ccc(O)cc1)NC(=O)[C@@H](N)CO)[C@@H](C)O)[C@@H](C)O)C(=O)N[C@@H](C)C(=O)N1CCC[C@H]1C(N)=O [Peptide D06P91] (H-SYWSETNTGGDNGGHYAAAP-NH2) | − (symbol − indicates its absence, following criteria established in Example 2)
CC[C@H](C)[C@H](NC(=O)CNC(=O)[C@H](CCCCN)NC(=O)[C@H](CCC(N)=O)NC(=O)[C@@H](N)Cc1ccccc1)C(=O)N[C@@H](CC(=O)O)C(=O)N[C@@H](CCCCN)C(=O)N[C@H](C(=O)N[C@@H](CC(=O)O)C(=O)N[C@@H](CC(C)C)C(=O)N[C@@H](CO)C(=O)N[C@@H](Cc1ccccc1)C(=O)N[C@@H](Cc1ccccc1)C(=O)N[C@@H](CC(N)=O)C(=O)N[C@@H](CCCCN)C(=O)N[C@@H](CCC(=O)O)C(=O)N[C@@H](C)C(=O)N[C@@H](CC(N)=O)C(=O)N[C@@H](CO)C(=O)N[C@@H](CO)C(N)=O)[C@@H](C)CC [Peptide O07P105] (H-FQKGIDKIDLSFFNKEANSS-NH2) | − (symbol − indicates its absence, following criteria established in Example 2)
CC(C)C[C@H](NC(=O)[C@H](CCC(=O)O)NC(=O)[C@H](CC(=O)O)NC(=O)[C@H](C)NC(=O)CNC(=O)CNC(=O)CNC(=O)CNC(=O)[C@H](Cc1ccccc1)NC(=O)[C@H](CC(C)C)NC(=O)[C@@H](NC(=O)[C@H](CC(=O)O)NC(=O)[C@@H](N)CC(N)=O)C(C)C)C(=O)N[C@@H](Cc1c[nH]c2ccccc12)C(=O)NCC(=O)NCC(=O)N[C@@H](C)C(=O)NCC(=O)N[C@@H](CCCCN)C(=O)N[C@@H](CC(=O)O)C(N)=O [Peptide A07P46] (H-NDVLFGGGGADELWGGAGKD-NH2) | − (symbol − indicates its absence, following criteria established in Example 2)
CC[C@H](C)[C@H](NC(=O)[C@@H](NC(=O)[C@H](CC(=O)O)NC(=O)[C@H](CC(N)=O)NC(=O)CNC(=O)[C@@H](N)CO)C(C)C)C(=O)N[C@H](C(=O)NCC(=O)N[C@@H](CC(N)=O)C(=O)N[C@@H](C)C(=O)N[C@@H](C)C(=O)N[C@@H](CC(N)=O)C(=O)N[C@@H](CC(N)=O)C(=O)N[C@H](C(=O)N[C@@H](CC(C)C)C(=O)N[C@@H](CCCCN)C(=O)NCC(=O)NCC(=O)N[C@@H](C)C(=O)NCC(N)=O)C(C)C)C(C)C [Peptide Y07P48] (H-SGNDVIVGNAANNVLKGGAG-NH2) | − (symbol − indicates its absence, following criteria established in Example 2)
CC[C@H](C)[C@H](NC(=O)[C@H](Cc1ccccc1)NC(=O)[C@@H](N)CC(=O)O)C(=O)N[C@@H](Cc1c[nH]cn1)C(=O)N[C@@H](Cc1ccccc1)C(=O)N[C@H](C(=O)N[C@@H](CC(=O)O)C(=O)N[C@@H](Cc1c[nH]cn1)C(=O)N[C@@H](Cc1ccccc1)C(=O)N[C@@H](CO)C(=O)NCC(=O)N[C@H](C(=O)N[C@@H](C)C(=O)NCC(=O)N[C@@H](CCC(=O)O)C(=O)N[C@@H](C)C(=O)N[C@@H](CC(C)C)C(=O)N[C@@H](CC(C)C)C(=O)N[C@@H](CO)C(=O)N[C@@H](Cc1ccc(O)cc1)C(N)=O)[C@@H](C)O)C(C)C [Peptide O07P107] (H-DFIHFVDHFSGTAGEALLSY-NH2) | − (symbol − indicates its absence, following criteria established in Example 2)
NSQKVIFAAWDAGGNDTFDF- amide (NSQKVIFAAWDAGGNDTFDF-NH2) [Peptide M07P38] | − (symbol − indicates its absence, following criteria established in Example 2)
CC[C@H](C)[C@H](NC(=O)[C@H](CC(N)=O)NC(=O)[C@@H](N)C(C)C)C(=O)NCC(=O)NCC(=O)N[C@@H](Cc1c[nH]cn1)C(=O)N[C@@H](CCC(N)=O)C(=O)N[C@@H](C)C(=O)N1CCC[C@H]1C(=O)N[C@@H](CC(=O)O)C(=O)N[C@@H](Cc1ccccc1)C(=O)N[C@@H](CC(C)C)C(=O)N[C@H](C(=O)N[C@@H](CCCCN)C(=O)N[C@H](C(=O)N[C@H](C(=O)NCC(=O)N[C@@H](CCC(N)=O)C(=O)N[C@H](C(=O)N[C@@H](CC(=O)O)C(N)=O)C(C)C)C(C)C)[C@@H](C)CC)C(C)C [Peptide E07P02] (H-VNIGGHQAPDFLVKIVGQVD-NH2) | − (symbol − indicates its absence, following criteria established in Example 2)
CC[C@H](C)[C@H](NC(=O)[C@H](CO)NC(=O)[C@@H](NC(=O)[C@H](CC(N)=O)NC(=O)CNC(=O)[C@H](CCCCN)NC(=O)[C@H](CC(C)C)NC(=O)CNC(=O)CNC(=O)[C@@H](NC(=O)[C@H](CC(=O)O)NC(=O)[C@H](CO)NC(=O)[C@H](Cc1ccccc1)NC(=O)[C@H](CO)NC(=O)[C@H](CCCCN)NC(=O)[C@H](CCC(=O)O)NC(=O)[C@H](CC(N)=O)NC(=O)[C@@H](N)CC(C)C)C(C)C)C(C)C)C(=O)N[C@@H](C)C(=O)N[C@@H](C)C(N)=O [Peptide A07P47] (H-LNEKSFSDVGGLKGNVSIAA-NH2) | − (symbol − indicates its absence, following criteria established in Example 2)

Same assay, conditions: peptide library screening

Compound | cytotoxic / biological activity in vitro on tumor cells
CC(C)C[C@H](N)C(=O)N[C@@H](Cc1ccc(O)cc1)C(=O)NCC(=O)N[C@@H](C)C(=O)N[C@@H](CC(N)=O)C(=O)N1CCC[C@H]1C(=O)N[C@@H](CO)C(=O)N[C@H](C(=O)N[C@@H](CCCNC(=N)N)C(=O)N[C@H](C(=O)NCC(=O)N[C@@H](CC(=O)O)C(=O)N[C@H](C(=O)N[C@H](C(=O)N[C@@H](Cc1ccc(O)cc1)C(=O)NCC(=O)N[C@@H](Cc1ccccc1)C(=O)N[C@@H](CC(N)=O)C(=O)N[C@@H](CO)C(=O)N[C@@H](CC(N)=O)C(N)=O)C(C)C)[C@@H](C)O)[C@@H](C)O)[C@@H](C)O [Peptide E07P06] (H-LYGANPSTRTGDTVYGFNSN-NH2) | no cytotoxic activity
